From patent US11945794B2, “Nuclear transport modulators and uses thereof” (Karyopharm Therapeutics Inc., priority 2013, dated 2024)

Tests used:
Assay in all cases: MTT assay panel
Format in all cases: cell-based
SW-900 = conditions: Homo sapiens, SW900; SW-900 cells, 72 hours
Experimental: (§1) Compound 124 was further tested against a panel of selected solid and hematological cancer cell lines and selected normal cell lines in an MTT assay. Briefly, the various cell lines above were plated at different densities on day 1. […] Cell Titer AQueous One was added to each well, and the plates were read in a plate reader at OD 495.

SNU-398 = conditions: Homo sapiens; SNU-398 cells, 72 hours
Experimental: as §1

HT1080 = conditions: Homo sapiens, HT-1080; HT1080 cells, 72 hours
Experimental: as §1

SW-837 = conditions: Homo sapiens, SW837; SW-837 cells, 72 hours
Experimental: as §1

NCI-H1299 = conditions: Homo sapiens; NCI-H1299 cells, 72 hours
Experimental: as §1

MM1R = conditions: MM.1R; MM1R cells, 72 hours
Experimental: as §1

MHCC97H = conditions: Homo sapiens; MHCC97H cells, 72 hours
Experimental: as §1

HCT116.1 = HCT116.1 cells, 72 hours
Experimental: as §1

SKOV3 = conditions: Homo sapiens, SK-OV-3; SKOV3 cells, 72 hours
Experimental: as §1

PATU-8988T = conditions: Homo sapiens; PATU-8988T cells, 72 hours
Experimental: as §1

Pfieffer = Pfieffer cells, 72 hours
Experimental: as §1

NCI-H28 = conditions: Homo sapiens; NCI-H28 cells, 72 hours
Experimental: as §1

Colo-201 = conditions: Homo sapiens; Colo-201 cells, 72 hours
Experimental: as §1

MSTO-211H = conditions: Homo sapiens; MSTO-211H cells, 72 hours
Experimental: as §1

SW-48 = conditions: Homo sapiens, SW48; SW-48 cells, 72 hours
Experimental: as §1

HCC-2935 = conditions: Homo sapiens, HCC2935; HCC-2935 cells, 72 hours
Experimental: as §1

KG-1 = conditions: Homo sapiens; KG-1 cells, 72 hours
Experimental: as §1

TF-1 = conditions: Homo sapiens; TF-1 cells, 72 hours
Experimental: as §1

NCI-H1993 = conditions: Homo sapiens; NCI-H1993 cells, 72 hours
Experimental: as §1

SW-1116 = conditions: Homo sapiens; SW-1116 cells, 72 hours
Experimental: as §1

Farage = Farage cells, 72 hours
Experimental: as §1

NCI-H1563 = conditions: Homo sapiens; NCI-H1563 cells, 72 hours
Experimental: as §1

NCI-H69 = conditions: Homo sapiens; NCI-H69 cells, 72 hours
Experimental: as §1

U-937 = conditions: Homo sapiens; U-937 cells, 72 hours
Experimental: as §1

OCIAML5 = conditions: Homo sapiens, OCI-AML-5; OCIAML5 cells, 72 hours
Experimental: as §1

NCI-H2030 = conditions: Homo sapiens; NCI-H2030 cells, 72 hours
Experimental: as §1

NCI-H889 = conditions: Homo sapiens; NCI-H889 cells, 72 hours
Experimental: as §1

HCC-4006 = conditions: Homo sapiens, HCC4006; HCC-4006 cells, 72 hours
Experimental: as §1

IMR-90 = conditions: Homo sapiens; IMR-90 cells, 72 hours
Experimental: as §1

HPAF-II = conditions: Homo sapiens; HPAF-II cells, 72 hours
Experimental: as §1

HuCCT-1 = conditions: Homo sapiens; HuCCT-1 cells, 72 hours
Experimental: as §1

HeLa = conditions: Homo sapiens; HeLa cells, 72 hours
Experimental: as §1

HCT-15 = conditions: Homo sapiens; HCT-15 cells, 72 hours
Experimental: as §1

L3.6pl = conditions: Homo sapiens; L3.6pl cells, 72 hours
Experimental: as §1

AU-565 = conditions: Homo sapiens, AU565; AU-565 cells, 72 hours
Experimental: as §1

U-266 = conditions: Homo sapiens; U-266 cells, 72 hours
Experimental: as §1

LN18 = conditions: Homo sapiens, LN-18; LN18 cells, 72 hours
Experimental: as §1

3T3 = conditions: Mus musculus, NIH3T3; 3T3 cells, 72 hours
Experimental: as §1

RKO = conditions: Homo sapiens; RKO cells, 72 hours
Experimental: as §1

- IC50 (SW-900): 1850 nM
- IC50 (SNU-398): 970 nM
- IC50 (HT1080): 310 nM
- IC50 (SW-837): 500 nM
- IC50 (NCI-H1299): 50 nM
- IC50 (MM1R): 8 nM
- IC50 (HCT116.1): 200 nM
- IC50 (SKOV3): > 10000 nM
- IC50 (NCI-H28): 340 nM
- IC50 (Colo-201): > 10000 nM
- IC50 (SW-48): 120 nM
- IC50 (NCI-H1993): > 10000 nM
- IC50 (SW-1116): 410 nM
- IC50 (NCI-H1563): 7820 nM
- IC50 (NCI-H69): 1640 nM
- IC50 (U-937): 250 nM
- IC50 (NCI-H2030): 2050 nM
- IC50 (NCI-H889): 1020 nM
- IC50 (HCC-4006): 20 nM
- IC50 (HeLa): 1050 nM
- IC50 (HCT-15): 460 nM
Compound: NC(=O)/C(=C/n1cnc(-c2cc(C(F)(F)F)cc(C(F)(F)F)c2)n1)c1cncnc1 [Compound 124, (E)-3-(3-(3,5-bis(trifluoromethyl)phenyl)-1H-1,2,4-triazol-1-yl)-2-(pyrimidin-5-yl)acrylamide]
- IC50 (MHCC97H): > 10000 nM
- IC50 (PATU-8988T): 7170 nM
- IC50 (Pfieffer): 140 nM
- IC50 (MSTO-211H): 70 nM
- IC50 (HCC-2935): 6700 nM
- IC50 (KG-1): 90 nM
- IC50 (TF-1): 110 nM
- IC50 (Farage): 460 nM
- IC50 (OCIAML5): 40 nM
- IC50 (IMR-90): > 10000 nM
- IC50 (HPAF-II): > 10000 nM
- IC50 (HuCCT-1): 50 nM
- IC50 (L3.6pl): 470 nM
- IC50 (AU-565): 490 nM
- IC50 (U-266): 230 nM
- IC50 (LN18): 2060 nM
- IC50 (3T3): 1100 nM
- IC50 (RKO): 450 nM
